Laboratory results as given in patent US6251868A, “Method for treating a human immunodeficiency virus infection” (Teijin Limited, priority 1998, dated 2001).
“Also recorded” adds a separate entry of the source.

Legend:
[1] = system: H-9/IIIB cells (H-9 cells infected with HIV-1IIIB); assay: Viability and growth of chronically HIV-1-infected H-9/IIIB cells (trypan-blue exclusion); assay type: cell-based, human
Experimental: The uninfected human T-lymphoid cell-line, H-9, or H-9 cells infected with an HIV-1 strain, HIV-1IIIB (H-9/IIIB) (Science 1984; 224:497-500), were seeded in 24 or 96 well tissue culture plates at a density of 2-2.5×10^5 /ml and maintained in RPMI-1640 tissue culture medium supplemented with 10% fetal bovine serum (FBS), with or without a variety of concentrations of γ-GCE, GSH, or NAC. Every two or three days, 50-80% of cell suspensions were removed, and the same amount of fresh medium, with the same concentrations of the compound to be analyzed were added for further incubation. At the same time-points, viable cells were counted for calculating the relative cell growth value, by the trypan-blue exclusion method. At the same time, cell viability was also monitored as the percentage of viable cells in the total cell population. […]

[2] = system: HIV-1 strain NL-4-3 in H-9 cells; assay: Acute HIV-1 infection of H-9 cells; assay type: cell-based, HIV-1 (NL4-3)
Experimental: Virus stocks of the HIV-1NL4-3strain were prepared and titered as described previously (Hum Gene Ther 1995; 6: 1561-1571). H-9 cells (3×10^5cells.) were suspended in 1 ml of growth medium with or without γ-GCE at a variety of concentrations, and seeded in a chamber of a 24-well tissue culture plate. Virus suspension containing 30 pg of HIV-1 p24 antigen was added to each chamber, for the initial infection. Infection was carried out overnight at 37° C., then the cells were washed once with PBS, and once more with growth medium. The supernatant of the final wash was saved as a day 0 time-point. Washed cells were resuspended with corresponding media for further incubation at 37° C. Once in three days, cell suspensions and supernatants were harvested for cell counting and HIV-1 p24 antigen quantification. Measurement of cell growth, viability, and virus production were performed as described in a previous subsection. On the days of harvest, 200 μl of cell suspension was left in each well, and 800 μl of fresh medium with corresponding concentrations of γ-GCE was added to support cell growth, except day 18, on which 400 μl of cell suspension was left and 600 μl of medium was added to each well. Cell numbers at each time-point were determined accordingly, based on the accumulation of dilution factors along with the frequency of passage.

[3] = system: HIV-1 production of H-9/IIIB cells; assay: HIV-1 p24 antigen production from H-9/IIIB cells at low, non-toxic doses; assay type: cell-based, HIV-1 (HIV-1IIIB); conditions: for HIV-1 production (p24 antigen) of H-9/IIIB cells: days three and six
Experimental: H-9/IIIB cells were washed with PBS and seeded at a density of 2×10^5 /ml in RPMI-1640/10% FBS with or without 0.2or 0.4 mM of γ-GCE. Three and six days after initiation of experiments, culture supernatants were sampled and assayed, as described above. On day three, 72% of each cell suspension was removed, and fresh medium with a corresponding GSH pro-drug was added. Total HIV-1 p24 antigen production values on day six were deduced by multiplying raw values, on day six, with the dilution factor on day three.

[4] = system: HIV-1 virus stock (NL4-3); assay: Direct inactivation of HIV-1 by pre-incubation, then acute infection of H9 cells; assay type: cell-based, HIV-1 (NL4-3); conditions: for infectivity of HIV-1 after pre-incubation: 4 hours at 37° C., no viral production 15 days post-infection
Experimental: An HIV-1 virus stock (NL4-3) containing 6 ng of HIV-1 p24 antigen was pre-incubated in the presence or absence of γ-GCE in 20 ml of RPMI-1640/10% FBS for 4 hr at 37° C. Afterwards, acute infection of H9 cells were carried out, using […] of each pretreated virus suspension into 1 ml of the cell suspension without γ-GCE, as described in the previous subsection. Sampling and maintenance of cell culture were also performed, following the same procedure as described in the previous subsection, without adding any γ-GCE through passage.

[5] = system: uninfected human T-lymphoid cell-line, H-9; assay: Viability and growth of uninfected H-9 cells (trypan-blue exclusion); assay type: cell-based; conditions: for cell viability (percentage of viable cells): through 6 days of incubation
Experimental: Every two or three days, 50-80% of cell suspensions were removed, and the same amount of fresh medium, with the same concentrations of the compound to be analyzed were added for further incubation. At the same time-points, viable cells were counted for calculating the relative cell growth value, by the trypan-blue exclusion method. At the same time, cell viability was also monitored as the percentage of viable cells in the total cell population.

[6] = system: HIV-1 production of H-9/IIIB cells; assay: HIV-1 p24 antigen production from H-9/IIIB cells at 1.25 or 2.5 mM (ELISA); assay type: cell-based, HIV-1 (HIV-1IIIB); conditions: for HIV-1 production (p24 antigen) from H-9/IIIB cells: days two and four; for production of HIV-1 from chronically infected cells: high doses, up to a concentration of 2.5 mM
Experimental: H-9/IIIB cells were washed thoroughly with phosphate-buffered saline (PBS) and resuspended at a density of 1×10^5 /ml in RPMI-1640/10% FBS with or without 1.25 or 2.5 mM of γ-GCE, GSH, or NAC. Since H-9/IIIB cells are constantly producing a large quantity of virus particles, stimulation with factors such as TNF-α or PMA were not required for carrying out these experiments. After two and four days, culture supernatant was removed, centrifuged to remove cells and debris, and evaluated by HIV-1 p24 antigen quantification. Measurement of the HIV-1 p24 antigen was performed by a sensitive enzyme-linked immunosorbant assay (ELISA) (DuPont).

[7] = some decrease in relative cell growth, minimal decrease in viability after 6 days

CCOC(=O)[C@H](CS)NC(=O)CC[C@H](N)C(=O)O [γ-GCE, γ-L-glutamyl-L-cysteine ethyl ester]
discrepancy of the thresholds of the toxic doses between infected and uninfected cells [1]: more than ten-fold
cell viability of H-9/IIIB cells ([1]; 200 μM and 400 μM (either dose)): > 86%
cell growth of H-9/IIIB cells ([1]; 400 μM): Slower cell growth
cell growth of H-9/IIIB cells ([1]; 800 μM): dramatically impairs growth; also recorded: dramatically impaired
cell growth of H-9/IIIB cells ([1]; 800 μM, after 12 days of treatment): no significant cell growth
sensitivity of H-9/IIIB cells to γ-GCE relative to uninfected cells (selective toxicity) ([1]; 5 mM on H-9 vs 400 μM on H-9/IIIB, equivalent cytotoxic profiles): approximately 12.5 times
cell growth relative to control ([1]; H-9/IIIB, 800 μM, day six): less than 40 % of the control
concentration giving equivalent cytotoxic profile on H-9/IIIB cells [1, 7]: ~400 µM
propagation of HIV-1 (total HIV-1 p24 antigen) ([2]; 1.6 mM, 21 days postinfection): completely blocked
syncytia-formation ([2]; 1.6 mM, data not illustrated): not significantly observed
growth and viability of HIV-1-inoculated H-9 cells ([2]; 1.6 mM, entire experiments): continued to grow actively, maintaining high viability
acute infection (total HIV-1 p24 antigen) ([2]; 400-800 μM): not inhibited significantly
propagation of HIV-1 in acute infection of T-lymphocytic cells ([2]; relatively high doses): entirely blocked
HIV-1 production (p24 antigen) of H-9/IIIB cells ([3]; 200 μM): significantly inhibited
HIV-1 production (p24 antigen) of H-9/IIIB cells ([3]; 400 μM): significantly inhibited
viral production from chronically HIV1-expressing cells ([3]; lower concentrations (200-400 μM), viability not affected): significantly represses
propagation of HIV-1 in H-9 cells after pre-incubation of virus ([4]; 625 μM, 4 hours): only some delay of the onset
infectivity of HIV-1 after pre-incubation ([4]; 1.25 mM): completely inactivates; also recorded: loss of infectivity
infectivity of HIV-1 after pre-incubation ([4]; 2.5 mM): completely inactivates; also recorded: loss of infectivity
time in which infectivity of HIV-1 is directly inhibited ([4]; relatively high doses): within four hours
viral infectivity after pre-incubation ([4]; same concentrations (625 μM-2.5 mM), one hour, data not illustrated): did not show significant interference
effect on cell viability and growth of uninfected H-9 cells ([5]; 2.5 mM): unaffected; also recorded: no negative effects on cell viability and growth
concentration giving equivalent cytotoxic profile on H-9 cells [5, 7]: ~5000 µM
cell viability (percentage of viable cells) ([5]; uninfected H-9 cells, 2.5 mM): ≥ 90%
HIV-1 production (p24 antigen) from H-9/IIIB cells ([6]; 1.25 mM): almost completely shut-off
HIV-1 production (p24 antigen) from H-9/IIIB cells ([6]; 2.5 mM): almost completely shut-off
production of HIV-1 from chronically infected cells [6]: potently inhibits the production of HIV-1

N[C@@H](CCC(=O)N[C@@H](CS)C(=O)NCC(=O)O)C(=O)O [GSH, glutathione]
effect on cell viability and growth of uninfected H-9 cells ([5]; 2.5 mM): no negative effects on growth
cell viability (percentage of viable cells) ([5]; uninfected H-9 cells, 2.5 mM): ≥ 90%
HIV-1 production (p24 antigen) from H-9/IIIB cells ([6]; 1.25 mM): neither GSH (triangles) nor NAC (rectangles) can overwhelm the vigorous HIV-1 production; also recorded: Neither GSH nor NAC could overwhelm the vigorous HIV-1 production; also recorded: did not alter viral expression
HIV-1 production (p24 antigen) from H-9/IIIB cells ([6]; 2.5 mM): increased the virus production
production of HIV-1 from chronically infected cells [6]: neither GSH nor other GSH precursors show inhibitory effects

CC(=O)N[C@@H](CS)C(=O)O [NAC, N-acetylcysteine]
effect on cell viability and growth of uninfected H-9 cells ([5]; 2.5 mM): no negative effects on growth
cell viability, lowest value ([5]; uninfected H-9 cells, 2.5 mM, Day 4): 91.75±0.45%
cell viability (percentage of viable cells) ([5]; uninfected H-9 cells, 2.5 mM): ≥ 90%
HIV-1 production (p24 antigen) from H-9/IIIB cells ([6]; 1.25 mM): neither GSH (triangles) nor NAC (rectangles) can overwhelm the vigorous HIV-1 production; also recorded: Neither GSH nor NAC could overwhelm the vigorous HIV-1 production; also recorded: did not alter viral expression
HIV-1 production (p24 antigen) from H-9/IIIB cells ([6]; 2.5 mM): increased the virus production
